From patent publication US20190062305A1, “PYRIDYL OR PYRAZINYL COMPOUNDS CARRYING A METHYL-BOUND ALPHA-AMINO ACID AMIDE GROUP” (ABBVIE DEUTSCHLAND GMBH & CO. KG, priority 2015, published 2019) come the findings set out here.

Where a name gives a salt, the structure may show the parent alone. Read-outs that look alike come from different tables or passages of the source.

By EC50 is commonly meant the concentration giving half of the maximal effect. Broadly, the Emax is the size of the effect at its maximum, as opposed to the concentration needed.

Data set [1] is described as follows: Metabolic stability in human liver microsomes, unbound intrinsic clearance (Cl int/fu mic). It counts as in vitro ADME. The settings on record: 0.5 μM compound, NADPH; for CLint scaled at 0.5 μM: pH 7.4, human liver microsomes 0.25 mg/mL, read-out: Cl int, mic unb. (h) [l/h/kg] (unbound intrinsic clearance, human). The method in brief: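 Unbound intrinsic clearance is CLint divided by fu mic, with the unbound fraction measured by 4 h HTDialysis at 37 °C of 0.25 mg/ml microsomes spiked with 0.5 µM compound. For CLint, 0.5 µM compound was incubated with 0.25 mg/mL human microsomes and 1.0 mM NADPH (pH 7.4, 37 °C). Substrate loss over 30 min was measured by LC-MS/MS and t1/2 assumed first-order kinetics.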

Another data set addresses T1, 5-HT2C receptor (Homo sapiens, UniProt P28335).
T1 construct: host or cells: U2OS
The experiment in a line: Human 5-HT2C functional assay (beta-arrestin2 recruitment, U2OS_HTR2C_β-Arrestin cells). Type of data set: cell-based. Conditions: for EC50: beta-arrestin2 recruitment, U2OS_HTR2C_β-Arrestin cells, 1.5 h incubation, read-out: EC50 5-HT2C (potency in functional assay); for Emax: relative efficacy vs response to 10 μM 5-HT or maximal 5-HT effect (100%). The method in brief:
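EC50 and relative efficacy came from 4-parameter variable-slope fits, normalised to 10 µM 5-HT or maximal 5-HT response (100%). Luminescent β-galactosidase enzyme-complementation signal was read after 1.5 h compound exposure in U2OS_HTR2C_β-Arrestin cells held in 1% serum medium from the prior day.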
On the technique in general: Arrestin recruitment assays detect the binding of arrestin to an activated receptor.

T1 sequence (P28335 33-458): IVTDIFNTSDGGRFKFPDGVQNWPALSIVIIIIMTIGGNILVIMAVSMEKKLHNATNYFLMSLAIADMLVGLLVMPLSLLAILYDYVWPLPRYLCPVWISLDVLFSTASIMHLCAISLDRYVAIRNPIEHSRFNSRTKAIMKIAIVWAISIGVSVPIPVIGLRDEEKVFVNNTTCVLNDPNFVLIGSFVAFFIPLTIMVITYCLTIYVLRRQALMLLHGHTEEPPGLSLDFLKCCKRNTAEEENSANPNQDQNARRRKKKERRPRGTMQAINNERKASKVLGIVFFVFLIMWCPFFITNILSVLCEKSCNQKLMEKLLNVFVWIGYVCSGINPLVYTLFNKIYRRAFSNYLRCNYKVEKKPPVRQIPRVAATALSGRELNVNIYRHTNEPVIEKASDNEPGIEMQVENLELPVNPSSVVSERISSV
T1 sequence (P32121 whole entry partner): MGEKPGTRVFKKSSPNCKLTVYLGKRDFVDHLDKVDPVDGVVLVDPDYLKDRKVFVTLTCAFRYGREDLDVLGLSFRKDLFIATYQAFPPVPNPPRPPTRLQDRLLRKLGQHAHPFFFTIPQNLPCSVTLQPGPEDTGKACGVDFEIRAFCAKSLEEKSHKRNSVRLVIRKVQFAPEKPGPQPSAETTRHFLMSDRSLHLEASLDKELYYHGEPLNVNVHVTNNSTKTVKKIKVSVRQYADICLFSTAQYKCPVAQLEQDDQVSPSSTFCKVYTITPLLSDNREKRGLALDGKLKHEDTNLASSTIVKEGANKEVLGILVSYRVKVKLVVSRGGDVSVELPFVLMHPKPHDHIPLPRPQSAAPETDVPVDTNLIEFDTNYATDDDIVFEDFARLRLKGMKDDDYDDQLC

With `COc1nc(OC2CCC(F)(F)CC2)c(F)cc1CNC(=O)[C@H]1CCCN1C` [Example 52, (2R)—N-[[6-(4,4-Difluorocyclohexoxy)-5-fluoro-2-methoxy-3-pyridyl]methyl]-1-methyl-pyrrolidine-2-carboxamide Hydrochloride], in data set [1] (human, liver microsomes), the CLint scaled at 0.5 μM is under 5 L/h/kg. On 5-HT2C receptor, the EC50 was 20 to 200 nM and the Emax is over 70%.
Consider `COc1nc(NCc2ccccc2)c(F)cc1CNC(=O)[C@@H]1CCCN1` [Example 170, (2S)—N-[[6-(Benzylamino)-5-fluoro-2-methoxy-3-pyridyl]methyl]pyrrolidine-2-carboxamide; 2,2,2-trifluoroacetic Acid], for which, in data set [1] (human, liver microsomes), the CLint scaled at 0.5 μM was under 5 L/h/kg. For the same molecule, at 5-HT2C receptor, the EC50 lay in the range of 20 to 200 nM and the maximal effect (Emax) was over 70%.
On to `COc1nc(N[C@H]2CC[C@H](C(F)(F)F)CC2)c(F)cc1CNC(=O)[C@@H]1CCCN1` [Example 143, (2S)—N-[[5-Fluoro-2-methoxy-6-[[trans-4-(trifluoromethyl)cyclohexyl]amino]-3-pyridyl]methyl]pyrrolidine-2-carboxamide], for which the “Cl int, mic unb. (h) [l/h/kg] (unbound intrinsic clearance, human)” value in data set [1] (human liver microsomes 0.25 mg/mL) is given as “+ (from 50 to 500 l/h/kg)”. At 5-HT2C receptor, the concentration for a half-maximal effect (EC50) was under 20 nM and the Emax was over 70%.
Regarding `COc1nc(N2CCCC3(C2)CC3(F)F)c(F)cc1CNC(=O)[C@@H]1CCCN1` (stereo partly drawn) [Example 188, (2S)—N-[[6-(2,2-Difluoro-7-azaspiro[2.5]octan-7-yl)-5-fluoro-2-methoxy-3-pyridyl]methyl]pyrrolidine-2-carboxamide; 2,2,2-trifluoroacetic Acid], the CLint scaled at 0.5 μM in data set [1] lay in the range of 5 to 50 L/h/kg. On 5-HT2C receptor, the concentration giving a half-maximal response (EC50) was in the range of 20 to 200 nM and the Emax is over 70%.
With `COc1nc(OCC(F)(F)C(F)F)c(F)cc1CNC(=O)[C@@H]1CCCN1C` [Example 91, (2S)—N-[[5-Fluoro-2-methoxy-6-(2,2,3,3-tetrafluoropropoxy)-3-pyridyl]methyl]-1-methyl-pyrrolidine-2-carboxamide Hydrochloride], the CLint scaled at 0.5 μM in data set [1] (human, liver microsomes) was under 5 L/h/kg. Moreover, at 5-HT2C receptor, the EC50 was under 20 nM and the Emax is over 70%.
For the molecule `COc1nc(OCC2CC3C(C2)C3(F)F)c(F)cc1CNC(=O)[C@@H]1CCCN1` (stereo partly drawn) [Example 56, (2S)—N-[[6-[(6,6-Difluoro-3-bicyclo[3.1.0]hexanyl)methoxy]-5-fluoro-2-methoxy-3-pyridyl]methyl]pyrrolidine-2-carboxamide; 2,2,2-trifluoroacetic Acid], in data set [1] (human, liver microsomes), the CLint scaled at 0.5 μM is 5 to 50 L/h/kg. In addition, at 5-HT2C receptor, the EC50 is under 20 nM and the Emax is over 70%.
Consider `COc1nc(OCC(F)(F)C(F)F)c(F)cc1CNC(=O)[C@@H]1CCCN1` [Example 46, (2S)—N-[[5-Fluoro-2-methoxy-6-(2,2,3,3-tetrafluoropropoxy)-3-pyridyl]methyl]-pyrrolidine-2-carboxamide; Succinic Acid], for which, in data set [1] (human, liver microsomes), the CLint scaled at 0.5 μM is under 5 L/h/kg. Also, on 5-HT2C receptor, the EC50 was under 20 nM and the Emax is over 70%.
Turning to `COc1nc(OC2CCC(C(F)(F)F)CC2)c(F)cc1CNC(=O)[C@@H]1CCN1C` (stereo partly drawn) [Example 38, (2S)—N-[[5-Fluoro-2-methoxy-6-[4-(trifluoromethyl)cyclohexoxy]-3-pyridyl]methyl]-1-methyl-azetidine-2-carboxamide; Succinic Acid], in data set [1] (human, liver microsomes), the CLint scaled at 0.5 μM fell in the range of 5 to 50 L/h/kg. Besides, at 5-HT2C receptor, the EC50 lay in the range of 20 to 200 nM and the maximal response (Emax) lay in the range of 50 to 70%.
The corresponding values for `COc1nc(N(C)CCc2ccccc2)c(F)cc1CNC(=O)[C@@H]1CCCN1` [Example 137, (2S)—N-[[5-Fluoro-2-methoxy-6-[methyl(phenethyl)amino]-3-pyridyl]methyl]-pyrrolidine-2-carboxamide Hydrochloride] are 50 to 500 L/h/kg, 200 to 1000 nM and over 70%.
The corresponding values for `COc1nc(C2CCCCC2)c(F)cc1CNC(=O)[C@@H]1CCCN1` [Example 132, (2S)—N-[(6-Cyclohexyl-5-fluoro-2-methoxy-3-pyridyl)methyl]pyrrolidine-2-carboxamide; 2,2,2-trifluoroacetic Acid] are 50 to 500 L/h/kg, under 20 nM and over 70%.
The corresponding values for `COc1nc(Cc2ccccc2)c(F)cc1CNC(=O)[C@@H]1CCCN1` [Example 145, (2S)—N-[(6-Benzyl-5-fluoro-2-methoxy-3-pyridyl)methyl]pyrrolidine-2-carboxamide] are under 5 L/h/kg, under 20 nM and over 70%.
As to `COc1nc(N2CCC3C(C2)C3(F)F)c(F)cc1CNC(=O)[C@@H]1CCCN1` (stereo partly drawn) [Example 184, (2S)—N-[[6-(7,7-Difluoro-4-azabicyclo[4.1.0]heptan-4-yl)-5-fluoro-2-methoxy-3-pyridyl]methyl]pyrrolidine-2-carboxamide; 2,2,2-trifluoroacetic Acid], the CLint scaled at 0.5 μM in data set [1] (human, liver microsomes) lay within 5 to 50 L/h/kg. Moreover, on 5-HT2C receptor, the EC50 fell in the range of 20 to 200 nM and the maximal response (Emax) is over 70%.
Consider `COc1nc(N2CCC(C(F)(F)F)C2)c(F)cc1CNC(=O)[C@@H]1CCCN1` (stereo partly drawn) [Example 163, (2S)—N-[[5-Fluoro-2-methoxy-6-[3-(trifluoromethyl)pyrrolidin-1-yl]-3-pyridyl]methyl]pyrrolidine-2-carboxamide; 2,2,2-trifluoroacetic Acid], for which the CLint scaled at 0.5 μM in data set [1] (human, liver microsomes) was in the range of 5 to 50 L/h/kg. Moreover, on 5-HT2C receptor, the EC50 is under 20 nM and the Emax was over 70%.
The corresponding values for `COc1nc(OC2CC(OC)C2)c(F)cc1CNC(=O)[C@@H]1CCCN1` (stereo partly drawn) [Example 104, (2S)—N-[[5-Fluoro-2-methoxy-6-(3-methoxycyclobutoxy)-3-pyridyl]methyl]-pyrrolidine-2-carboxamide Hydrochloride] are under 5 L/h/kg, under 20 nM and over 70%.
On the same counts, the results for `COc1nc(OC2CCC(OC)CC2)c(F)cc1CNC(=O)[C@@H]1CCCN1` (stereo partly drawn) [Example 12, (2S)—N-[[5-Fluoro-2-methoxy-6-(4-methoxycyclohexoxy)-3-pyridyl]methyl]-pyrrolidine-2-carboxamide; Fumaric Acid] are under 5 L/h/kg, 20 to 200 nM and over 70%.
On the same counts, the results for `COc1nc(OC(C(F)(F)F)C(F)(F)F)c(F)cc1CNC(=O)[C@@H]1CCCN1` [Example 111, (2S)—N-[[5-Fluoro-2-methoxy-6-[2,2,2-trifluoro-1-(trifluoromethyl)ethoxy]-3-pyridyl]methyl]pyrrolidine-2-carboxamide Hydrochloride] are 5 to 50 L/h/kg, under 20 nM and over 70%.
Take `COc1nc(N2CCC(C(F)(F)F)CC2)c(F)cc1CNC(=O)[C@@H]1CCCN1` [Example 133, (2S)—N-[[5-Fluoro-2-methoxy-6-[4-(trifluoromethyl)-1-piperidyl]-3-pyridyl]methyl]pyrrolidine-2-carboxamide; 2,2,2-trifluoroacetic Acid]: the CLint scaled at 0.5 μM in data set [1] (human, liver microsomes) fell in the range of 5 to 50 L/h/kg. At 5-HT2C receptor, the concentration giving a half-maximal response (EC50) is under 20 nM and the Emax was over 70%.
On the same counts, the results for `COc1nc(OCC2(C(F)F)CC2)c(F)cc1CNC(=O)[C@@H]1CCCN1C` [Example 96, (2S)—N-[[6-[[1-(Difluoromethyl)cyclopropyl]methoxy]-5-fluoro-2-methoxy-3-pyridyl]methyl]-1-methyl-pyrrolidine-2-carboxamide; (2S,3S)-2,3-dihydroxybutanedioic Acid] are under 5 L/h/kg, under 20 nM and over 70%.
On the same counts, the results for `COc1nc(OCC2CC(F)(F)C2(F)F)c(F)cc1CNC(=O)[C@@H]1CCCN1C` (stereo partly drawn) [Example 90, (2S)—N-[[5-Fluoro-2-methoxy-6-[(2,2,3,3-tetrafluorocyclobutyl)methoxy]-3-pyridyl]methyl]-1-methyl-pyrrolidine-2-carboxamide Hydrochloride] are under 5 L/h/kg, under 20 nM and over 70%.
On the same counts, the results for `COc1nc(N2CC(Oc3ccccc3)C2)c(F)cc1CNC(=O)[C@@H]1CCCN1` [Example 175, (2S)—N-[[5-Fluoro-2-methoxy-6-(3-phenoxyazetidin-1-yl)-3-pyridyl]methyl]-pyrrolidine-2-carboxamide; 2,2,2-trifluoroacetic Acid] are 5 to 50 L/h/kg, 20 to 200 nM and 50 to 70%.
For the molecule `COc1nc(O[C@H]2CCC[C@H](C(F)(F)F)C2)c(F)cc1CNC(=O)[C@@H]1CCCN1` (relative stereo) [Example 89, (2S)—N-[[5-Fluoro-2-methoxy-6-[(1S,3S)-3-(trifluoromethyl)cyclohexoxy]-3-pyridyl]methyl]pyrrolidine-2-carboxamide Hydrochloride], in data set [1] (human, liver microsomes), the CLint scaled at 0.5 μM fell in the range of 5 to 50 L/h/kg. On 5-HT2C receptor, the EC50 was under 20 nM and the maximal response (Emax) was over 70%.
The corresponding values for `COc1nc(OCC2(C(F)(F)F)CC2)c(F)cc1CN(C)C(=O)[C@@H]1CCCN1C` [Example 98, (2S)—N-[[5-Fluoro-2-methoxy-6-[[1-(trifluoromethyl)cyclopropyl]methoxy]-3-pyridyl]methyl]-N,1-dimethyl-pyrrolidine-2-carboxamide Hydrochloride] are under 5 L/h/kg, 20 to 200 nM and 50 to 70%.
